{
  "source": "ChEMBL document CHEMBL5154777",
  "about": "“Alternative approaches utilizing click chemistry to develop next-generation analogs of solithromycin” (2022)",
  "type_in_all_cases": "functional",
  "key": {"Enterobacter cloacae": {"system": "Enterobacter cloacae", "test": "Antibacterial activity against Enterobacter cloacae ATCC 13047"}, "Staphylococcus aureus [1]": {"system": "Staphylococcus aureus", "test": "Antibacterial activity against Staphylococcus aureus ATCC 33591"}, "Streptococcus pneumoniae [2]": {"system": "Streptococcus pneumoniae", "test": "Antibacterial activity against Streptococcus pneumoniae 2634 mef A 2059G"}, "Escherichia coli [3]": {"system": "Escherichia coli", "test": "Antibacterial activity against Escherichia coli MG1655"}, "Streptococcus pneumoniae [4]": {"system": "Streptococcus pneumoniae", "test": "Antibacterial activity against Streptococcus pneumoniae 655 mef A"}, "Staphylococcus aureus [5]": {"system": "Staphylococcus aureus", "test": "Antibacterial activity against Staphylococcus aureus UCN14"}, "Streptococcus pneumoniae [6]": {"system": "Streptococcus pneumoniae", "test": "Antibacterial activity against Streptococcus pneumoniae 2196 erm B"}, "Escherichia coli [7]": {"system": "Escherichia coli", "test": "Antibacterial activity against Escherichia coli DK3535"}, "Escherichia coli [8]": {"system": "Escherichia coli", "test": "Antibacterial activity against Escherichia coli SQ171"}, "Acinetobacter baumannii": {"system": "Acinetobacter baumannii", "test": "Antibacterial activity against Acinetobacter baumannii 2208 ATCC 19606"}, "Staphylococcus aureus [9]": {"system": "Staphylococcus aureus", "test": "Antibacterial activity against Staphylococcus aureus UCN18"}, "Escherichia coli [10]": {"system": "Escherichia coli", "test": "Antibacterial activity against Escherichia coli DK2058G"}, "Staphylococcus aureus [11]": {"system": "Staphylococcus aureus", "test": "Antibacterial activity against Staphylococcus aureus UCN17"}, "Klebsiella pneumoniae": {"system": "Klebsiella pneumoniae", "test": "Antibacterial activity against Klebsiella pneumoniae BAA 2146"}, "Staphylococcus aureus [12]": {"system": "Staphylococcus aureus", "test": "Antibacterial activity against Staphylococcus aureus ATCC 29213"}, "Enterococcus faecium": {"system": "Enterococcus faecium", "test": "Antibacterial activity against Enterococcus faecium NCTC 7171"}, "Escherichia coli [13]": {"system": "Escherichia coli", "test": "Antibacterial activity against Escherichia coli DK"}, "Escherichia coli [14]": {"system": "Escherichia coli", "test": "Antibacterial activity against Escherichia coli SQ171 2058G"}, "Staphylococcus aureus [15]": {"system": "Staphylococcus aureus", "test": "Antibacterial activity against methicillin-resistant Staphylococcus aureus ATCC 43300"}, "Pseudomonas aeruginosa": {"system": "Pseudomonas aeruginosa", "test": "Antibacterial activity against Pseudomonas aeruginosa HER 1018"}},
  "data": [
    {"smiles": "CC[C@H]1OC(=O)[C@@](C)(F)C(=O)[C@H](C)[C@@H](O[C@@H]2O[C@H](C)C[C@H](N(C)C)[C@H]2O)[C@](C)(OC)C[C@@H](C)C(=O)[C@H](C)[C@H]2N(CCCCn3cc(-c4cccc(N)c4)nn3)C(=O)O[C@]12C", "note": "[SOLITHROMYCIN]", "values": [
      {"measurement": "MIC", "setting": "Enterobacter cloacae", "value": 200, "unit": "µM"},
      {"measurement": "MIC", "setting": "Staphylococcus aureus [1]", "value": 38, "unit": "µM"},
      {"measurement": "MIC", "setting": "Streptococcus pneumoniae [2]", "value": 0.15, "unit": "µM"},
      {"measurement": "MIC", "setting": "Escherichia coli [3]", "value": 100, "unit": "µM"},
      {"measurement": "MIC", "setting": "Streptococcus pneumoniae [4]", "value": 0.29, "unit": "µM"},
      {"measurement": "MIC", "setting": "Staphylococcus aureus [5]", "value": 9.5, "unit": "µM"},
      {"measurement": "MIC", "setting": "Streptococcus pneumoniae [6]", "value": 0.59, "unit": "µM"},
      {"measurement": "MIC", "setting": "Escherichia coli [7]", "value": 2.4, "unit": "µM"},
      {"measurement": "MIC", "setting": "Escherichia coli [8]", "value": "> 38", "unit": "µM"},
      {"measurement": "MIC", "setting": "Acinetobacter baumannii", "value": 50, "unit": "µM"},
      {"measurement": "MIC", "setting": "Staphylococcus aureus [9]", "value": 4.7, "unit": "µM"},
      {"measurement": "MIC", "setting": "Escherichia coli [10]", "value": 4.7, "unit": "µM"},
      {"measurement": "MIC", "setting": "Staphylococcus aureus [11]", "value": 4.7, "unit": "µM"},
      {"measurement": "MIC", "setting": "Klebsiella pneumoniae", "value": 100, "unit": "µM"},
      {"measurement": "MIC", "setting": "Staphylococcus aureus [12]", "value": 0.071, "unit": "µM"},
      {"measurement": "MIC", "setting": "Enterococcus faecium", "value": 0.2, "unit": "µM"},
      {"measurement": "MIC", "setting": "Escherichia coli [13]", "value": 2.4, "unit": "µM"},
      {"measurement": "MIC", "setting": "Escherichia coli [14]", "value": "> 38", "unit": "µM"},
      {"measurement": "MIC", "setting": "Staphylococcus aureus [15]", "value": "> 200", "unit": "µM"},
      {"measurement": "MIC", "setting": "Pseudomonas aeruginosa", "value": 30, "unit": "µM"}
    ]}
  ]
}
